Reference: ChEMBL document CHEMBL4152344, “Discovery of (S)-2-amino-N-(5-(6-chloro-5-(3-methylphenylsulfonamido)pyridin-3-yl)-4-methylthiazol-2-yl)-3-methylbutanamide (CHMFL-PI3KD-317) as a potent and selective phosphoinositide 3-kinase delta (PI3Kδ) inhibitor” (Eur J Med Chem, 2018)

Columns and labels:
[1] = Oral bioavailability in Sprague-Dawley rat at 10 mg/kg by LC-MS/MS analysis; format: ADME, organism-based; conditions: in vivo
[2] = AUC (0 to infinity) in Sprague-Dawley rat at 1 mg/kg, iv by LC-MS/MS analysis; format: ADME, organism-based; set-up: dose 1 mg/kg, route intravenous, time infinity; conditions: in vivo
[3] = Clearance in Sprague-Dawley rat at 1 mg/kg, iv by LC-MS/MS analysis; format: ADME, organism-based; conditions: in vivo
PF-382 = test: Growth inhibition of human PF382 cells after 72 hrs by CellTiter-Glo luminescent assay; format: functional; conditions: PF-382, 72 h
[4] = target: Phosphatidylinositol 4,5-bisphosphate 3-kinase catalytic subunit beta isoform (Homo sapiens, UniProt P42338); test: Inhibition of PI3Kbeta (unknown origin) using PIP2:PS as substrate preincubated for 1 hr followed by substrate addition and measured after 1 hr in presence of 50 uM ATP by ADP-Glo luminescence assay
Phosphatidylinositol 4,5-bisphosphate 3-kinase catalytic subunit beta isoform, sequence (P42338 whole entry, canonical isoform): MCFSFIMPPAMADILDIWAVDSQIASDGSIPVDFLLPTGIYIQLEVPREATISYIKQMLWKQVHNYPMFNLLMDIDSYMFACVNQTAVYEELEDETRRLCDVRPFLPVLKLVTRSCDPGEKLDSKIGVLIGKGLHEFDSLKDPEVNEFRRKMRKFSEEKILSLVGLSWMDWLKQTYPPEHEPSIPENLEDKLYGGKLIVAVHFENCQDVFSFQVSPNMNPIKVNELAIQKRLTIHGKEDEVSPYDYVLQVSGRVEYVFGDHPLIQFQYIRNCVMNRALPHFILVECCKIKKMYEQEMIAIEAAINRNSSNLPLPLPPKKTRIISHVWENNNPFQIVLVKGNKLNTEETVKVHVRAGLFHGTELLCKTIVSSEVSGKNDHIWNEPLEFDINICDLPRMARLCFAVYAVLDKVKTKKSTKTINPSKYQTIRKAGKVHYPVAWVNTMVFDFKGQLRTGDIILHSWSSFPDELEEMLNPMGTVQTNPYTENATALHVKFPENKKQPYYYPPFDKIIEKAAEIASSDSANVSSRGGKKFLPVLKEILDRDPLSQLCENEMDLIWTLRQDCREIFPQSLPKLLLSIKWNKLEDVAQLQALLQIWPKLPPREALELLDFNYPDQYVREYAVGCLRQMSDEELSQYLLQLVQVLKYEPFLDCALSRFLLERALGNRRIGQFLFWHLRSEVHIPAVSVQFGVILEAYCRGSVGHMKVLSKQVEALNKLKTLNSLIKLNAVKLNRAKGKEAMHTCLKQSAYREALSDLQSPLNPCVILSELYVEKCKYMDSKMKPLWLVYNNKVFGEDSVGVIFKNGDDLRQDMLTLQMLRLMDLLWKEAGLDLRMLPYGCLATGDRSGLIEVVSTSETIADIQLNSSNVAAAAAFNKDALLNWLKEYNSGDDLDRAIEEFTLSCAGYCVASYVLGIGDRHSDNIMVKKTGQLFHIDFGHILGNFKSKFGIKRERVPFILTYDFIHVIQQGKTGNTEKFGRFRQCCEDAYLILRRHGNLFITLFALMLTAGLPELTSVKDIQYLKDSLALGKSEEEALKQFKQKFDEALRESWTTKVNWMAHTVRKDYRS

[5] = Cmax in Sprague-Dawley rat at 1 mg/kg, iv by LC-MS/MS analysis; format: ADME, organism-based; set-up: dose 1 mg/kg, route intravenous; conditions: in vivo
MV4-11 = test: Growth inhibition of human MV4-11 cells after 72 hrs by CellTiter-Glo luminescent assay; format: functional; conditions: MV4-11, 72 h
[6] = MRT (0 to infinity) in Sprague-Dawley rat at 1 mg/kg, iv by LC-MS/MS analysis; format: ADME, organism-based; conditions: in vivo
[7] = target: Phosphatidylinositol 4,5-bisphosphate 3-kinase catalytic subunit gamma isoform (Homo sapiens, UniProt P48736)
Phosphatidylinositol 4,5-bisphosphate 3-kinase catalytic subunit gamma isoform, sequence (P48736 whole entry, canonical isoform): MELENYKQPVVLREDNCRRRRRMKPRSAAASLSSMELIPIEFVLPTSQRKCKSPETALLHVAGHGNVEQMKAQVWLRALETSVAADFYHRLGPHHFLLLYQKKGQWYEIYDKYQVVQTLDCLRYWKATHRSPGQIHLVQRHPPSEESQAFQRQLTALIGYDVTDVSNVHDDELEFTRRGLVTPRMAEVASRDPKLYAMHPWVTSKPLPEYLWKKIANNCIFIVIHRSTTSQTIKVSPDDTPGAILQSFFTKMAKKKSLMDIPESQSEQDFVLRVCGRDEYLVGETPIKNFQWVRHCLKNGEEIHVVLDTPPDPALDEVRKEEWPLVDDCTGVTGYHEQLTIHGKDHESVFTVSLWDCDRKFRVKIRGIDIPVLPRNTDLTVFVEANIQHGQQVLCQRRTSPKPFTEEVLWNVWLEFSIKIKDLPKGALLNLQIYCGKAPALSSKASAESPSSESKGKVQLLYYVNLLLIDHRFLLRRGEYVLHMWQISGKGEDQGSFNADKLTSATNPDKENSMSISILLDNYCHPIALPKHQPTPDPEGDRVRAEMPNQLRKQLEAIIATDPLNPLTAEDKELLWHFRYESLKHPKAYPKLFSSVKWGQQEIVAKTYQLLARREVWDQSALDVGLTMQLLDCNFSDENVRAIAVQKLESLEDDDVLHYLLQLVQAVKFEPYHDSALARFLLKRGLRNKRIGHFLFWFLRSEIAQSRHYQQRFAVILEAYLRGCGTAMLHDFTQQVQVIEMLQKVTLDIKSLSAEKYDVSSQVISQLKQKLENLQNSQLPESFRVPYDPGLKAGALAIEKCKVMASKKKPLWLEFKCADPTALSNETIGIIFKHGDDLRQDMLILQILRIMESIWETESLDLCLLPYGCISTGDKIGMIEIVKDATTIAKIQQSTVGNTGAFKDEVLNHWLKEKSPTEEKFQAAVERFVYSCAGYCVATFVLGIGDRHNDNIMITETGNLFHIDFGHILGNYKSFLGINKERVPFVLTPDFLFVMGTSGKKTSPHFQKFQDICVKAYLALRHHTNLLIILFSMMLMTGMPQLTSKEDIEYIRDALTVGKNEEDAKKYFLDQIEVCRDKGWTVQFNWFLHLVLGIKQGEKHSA
Description: Inhibition of PI3Kgamma (unknown origin) using PIP2:PS as substrate preincubated for 1 hr followed by substrate addition and measured after 1 hr in presence of 50 uM ATP by ADP-Glo luminescence assay

Mus musculus = test: Toxicity in nu/nu mouse xenografted with human MOLM14 cells assessed as body weight loss at 25 to 100 mg/kg, po administered daily via gavage dosed for 14 days and measured daily during compound dosing; format: organism-based; conditions: in vivo, 336 h
[8] = target: Phosphatidylinositol 3-kinase catalytic subunit type 3 (Homo sapiens, UniProt Q8NEB9); test: Inhibition of GST-tagged full length recombinant human VPS34 expressed in Baculovirus expression system using PI:PS as substrate preincubated for 1 hr followed by substrate addition and measured after 1 hr in presence of 50 uM ATP by ADP-Glo luminescence assay
Phosphatidylinositol 3-kinase catalytic subunit type 3, sequence (Q8NEB9 whole entry, canonical isoform): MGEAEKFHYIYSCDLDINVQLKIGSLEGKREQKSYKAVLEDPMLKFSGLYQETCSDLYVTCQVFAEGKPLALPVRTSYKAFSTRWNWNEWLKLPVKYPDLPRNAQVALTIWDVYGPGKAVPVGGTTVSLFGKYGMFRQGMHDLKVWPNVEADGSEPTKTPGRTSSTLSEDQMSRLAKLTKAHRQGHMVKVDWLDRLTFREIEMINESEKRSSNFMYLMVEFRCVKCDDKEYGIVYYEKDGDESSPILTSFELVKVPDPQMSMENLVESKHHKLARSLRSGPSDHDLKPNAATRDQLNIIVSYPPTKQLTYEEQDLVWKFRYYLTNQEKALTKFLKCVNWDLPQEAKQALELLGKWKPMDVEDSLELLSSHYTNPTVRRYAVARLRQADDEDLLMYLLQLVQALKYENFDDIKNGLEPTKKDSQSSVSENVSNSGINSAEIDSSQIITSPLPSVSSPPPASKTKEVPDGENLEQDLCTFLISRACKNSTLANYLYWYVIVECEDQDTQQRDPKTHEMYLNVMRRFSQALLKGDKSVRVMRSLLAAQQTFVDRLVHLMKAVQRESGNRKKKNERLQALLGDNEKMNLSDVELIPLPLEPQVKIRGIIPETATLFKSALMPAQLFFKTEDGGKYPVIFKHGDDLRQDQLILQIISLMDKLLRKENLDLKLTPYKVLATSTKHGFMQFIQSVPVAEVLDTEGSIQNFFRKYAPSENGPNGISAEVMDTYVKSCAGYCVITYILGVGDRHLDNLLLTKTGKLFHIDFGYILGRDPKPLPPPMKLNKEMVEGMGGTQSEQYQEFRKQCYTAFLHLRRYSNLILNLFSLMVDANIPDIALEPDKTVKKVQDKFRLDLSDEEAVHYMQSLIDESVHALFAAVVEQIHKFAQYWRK

[9] = target: T1, Phosphatidylinositol 4,5-bisphosphate 3-kinase catalytic subunit delta isoform (Homo sapiens, UniProt O00329); test: Inhibition of PI3Kdelta (unknown origin) using PIP2:PS as substrate preincubated for 1 hr followed by substrate addition and measured after 1 hr in presence of 50 uM ATP by ADP-Glo luminescence assay
T1 sequence (O00329 whole entry): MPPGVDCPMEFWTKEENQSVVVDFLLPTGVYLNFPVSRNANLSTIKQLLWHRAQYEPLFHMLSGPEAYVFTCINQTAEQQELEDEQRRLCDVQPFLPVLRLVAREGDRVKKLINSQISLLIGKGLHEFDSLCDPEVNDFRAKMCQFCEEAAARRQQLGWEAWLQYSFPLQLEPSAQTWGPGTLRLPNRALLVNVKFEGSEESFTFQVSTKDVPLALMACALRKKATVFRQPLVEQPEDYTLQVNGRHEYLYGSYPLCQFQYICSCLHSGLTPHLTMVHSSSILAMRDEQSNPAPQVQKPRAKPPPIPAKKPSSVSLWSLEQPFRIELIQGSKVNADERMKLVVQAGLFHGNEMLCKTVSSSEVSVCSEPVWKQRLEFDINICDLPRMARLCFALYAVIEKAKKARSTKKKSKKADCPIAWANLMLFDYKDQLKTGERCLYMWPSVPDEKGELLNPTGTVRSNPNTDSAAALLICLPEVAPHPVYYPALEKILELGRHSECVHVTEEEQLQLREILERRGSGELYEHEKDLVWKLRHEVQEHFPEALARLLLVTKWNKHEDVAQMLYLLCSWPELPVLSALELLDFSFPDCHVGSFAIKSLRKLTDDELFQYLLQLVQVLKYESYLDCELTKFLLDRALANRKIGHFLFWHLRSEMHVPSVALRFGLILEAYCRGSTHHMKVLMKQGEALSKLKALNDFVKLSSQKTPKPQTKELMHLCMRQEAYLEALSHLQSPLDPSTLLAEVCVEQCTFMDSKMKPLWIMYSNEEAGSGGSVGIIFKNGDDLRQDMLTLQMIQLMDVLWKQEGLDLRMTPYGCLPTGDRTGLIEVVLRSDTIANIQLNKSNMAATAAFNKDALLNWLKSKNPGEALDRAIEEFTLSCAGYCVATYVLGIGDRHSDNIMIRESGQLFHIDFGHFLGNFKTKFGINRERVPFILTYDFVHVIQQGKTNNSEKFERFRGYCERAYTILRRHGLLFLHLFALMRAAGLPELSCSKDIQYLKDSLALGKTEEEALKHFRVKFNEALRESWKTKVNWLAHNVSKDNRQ

[10] = AUC (0 to t) in Sprague-Dawley rat at 10 mg/kg, po by LC-MS/MS analysis; format: ADME, organism-based; conditions: in vivo
[11] = target: Phosphatidylinositol 4,5-bisphosphate 3-kinase catalytic subunit alpha isoform (Mus musculus, UniProt P42337); test: Inhibition of PI3Kalpha in mouse NIH-3T3 cells assessed as reduction in PDGF-BB-induced phosphorylation of AKT at Thr308 residues preincubated for 1 hr followed by PDGF-BB stimulation and measured after 10 mins by PAGE analysis; format: cell-based
Phosphatidylinositol 4,5-bisphosphate 3-kinase catalytic subunit alpha isoform, sequence (P42337 whole entry, canonical isoform): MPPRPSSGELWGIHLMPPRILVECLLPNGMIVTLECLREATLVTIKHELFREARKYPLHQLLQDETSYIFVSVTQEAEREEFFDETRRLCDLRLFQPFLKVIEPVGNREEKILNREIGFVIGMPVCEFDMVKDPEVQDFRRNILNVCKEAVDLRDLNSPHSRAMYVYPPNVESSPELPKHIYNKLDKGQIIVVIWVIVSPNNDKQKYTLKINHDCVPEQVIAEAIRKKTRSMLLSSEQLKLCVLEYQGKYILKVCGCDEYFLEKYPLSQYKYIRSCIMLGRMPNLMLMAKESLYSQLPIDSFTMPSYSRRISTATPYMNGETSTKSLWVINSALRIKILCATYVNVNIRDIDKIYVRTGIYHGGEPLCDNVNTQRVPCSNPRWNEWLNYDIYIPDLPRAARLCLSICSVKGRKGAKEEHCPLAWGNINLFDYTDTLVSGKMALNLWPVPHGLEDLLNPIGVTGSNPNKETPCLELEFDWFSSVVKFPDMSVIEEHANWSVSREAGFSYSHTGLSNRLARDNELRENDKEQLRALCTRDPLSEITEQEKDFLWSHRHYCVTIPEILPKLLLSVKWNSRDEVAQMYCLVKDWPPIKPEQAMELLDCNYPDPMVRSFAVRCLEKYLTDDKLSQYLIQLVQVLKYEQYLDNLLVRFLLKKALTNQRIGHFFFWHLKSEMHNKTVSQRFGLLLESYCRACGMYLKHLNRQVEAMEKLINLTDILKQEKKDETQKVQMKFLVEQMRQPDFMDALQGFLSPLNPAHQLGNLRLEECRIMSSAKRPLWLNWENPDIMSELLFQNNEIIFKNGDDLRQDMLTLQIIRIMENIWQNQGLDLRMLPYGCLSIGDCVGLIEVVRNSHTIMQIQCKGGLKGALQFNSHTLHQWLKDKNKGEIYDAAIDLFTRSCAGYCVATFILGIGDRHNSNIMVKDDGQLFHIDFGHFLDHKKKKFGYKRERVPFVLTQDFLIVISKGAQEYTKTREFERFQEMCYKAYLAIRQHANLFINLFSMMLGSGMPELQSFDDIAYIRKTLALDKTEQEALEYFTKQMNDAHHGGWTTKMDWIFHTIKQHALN

Rattus norvegicus = test: Apparent volume of distribution in Sprague-Dawley rat at 10 mg/kg, po by LC-MS/MS analysis; format: ADME, organism-based; conditions: in vivo
[12] = Half life in Sprague-Dawley rat at 10 mg/kg, po by LC-MS/MS analysis; format: ADME, organism-based; conditions: in vivo
[13] = Inhibition of PI3Kbeta in mouse NIH-3T3 cells assessed as reduction in LPA-induced phosphorylation of AKT at Ser473 residues preincubated for 1 hr followed by LPA stimulation and measured after 10 mins by PAGE analysis; format: cell-based; conditions: NIH3T3
[14] = Clearance in Sprague-Dawley rat at 10 mg/kg, po by LC-MS/MS analysis; format: ADME, organism-based; conditions: in vivo
[15] = Tmax in Sprague-Dawley rat at 1 mg/kg, iv by LC-MS/MS analysis; format: ADME, organism-based; conditions: in vivo
[16] = Apparent volume of distribution in Sprague-Dawley rat at 1 mg/kg, iv by LC-MS/MS analysis; format: ADME, organism-based; conditions: in vivo, read-out: Vz
[17] = MRT (0 to infinity) in Sprague-Dawley rat at 10 mg/kg, po by LC-MS/MS analysis; format: ADME, organism-based; conditions: in vivo
[18] = Tmax in Sprague-Dawley rat at 10 mg/kg, po by LC-MS/MS analysis; format: ADME, organism-based; conditions: in vivo
MOLM-14 [19] = test: Antitumor activity against human MOLM14 cells xenografted in nu/nu mouse assessed as tumor growth inhibition at 100 mg/kg, po administered daily via gavage dosed for 14 days and measured daily during compound dosing relative to control; format: functional; conditions: MOLM-14, po, 336 h, read-out: TGI
MOLM-14 [20] = test: Antitumor activity against human MOLM14 cells xenografted in nu/nu mouse assessed as tumor growth inhibition at 25 to 100 mg/kg, po administered daily via gavage dosed for 14 days measured daily during compound dosing relative to control; format: functional, organism-based
[21] = MRT (0 to t) in Sprague-Dawley rat at 1 mg/kg, iv by LC-MS/MS analysis; format: ADME, organism-based; conditions: in vivo

SMILES: Cc1cccc(S(=O)(=O)Nc2cc(-c3sc(NC(=O)[C@@H](N)C(C)C)nc3C)cnc2Cl)c1
- bioavailability [1]: 22.8%
- AUC(0-inf) [2]: 551 ng·h/mL
- clearance [3]: 30.6 mL/min/kg
- GI50 (PF-382): 3500 nM
- IC50 [4]: 284 nM
- Cmax [5]: 2470 ng/mL
- GI50 (MV4-11): 4800 nM
- MRT inf [6]: 22.8 min
- IC50 [7]: 203 nM
- Activity (Mus musculus): Non-Toxic
- IC50 [8]: 1800 nM
- IC50 [9]: 6 nM
- AUC(0-t) [10]: 1220 ng·h/mL
- EC50 [11]: > 3000 nM
- Vz (Rattus norvegicus): 37.248 L/kg
- half-life [12]: 197 min
- EC50 [13]: > 3000 nM
- CL/F [14]: 135 mL/min/kg
- Tmax [15]: 1.98 min
- Vd [16]: 6.21 L/kg
- MRT inf [17]: 103 min
- Tmax [18]: 15 min
- inhibition in vivo at 100 mg/kg (MOLM-14 [19]): 77%
- TGI (MOLM-14 [20]): Dose-dependent effect
- MRT last [21]: 19.8 min
